Laboratory results published in PubChem BioAssay AID330 (DTP/NCI, 2004).
Values joined by “and” are separate entries in the source; they are usually repeats but may differ in a detail not shown here. Equal entries are not always repeated. Inconclusive results and toxic doses are left out. How the source made its calls: active means survival T/C of 150% or more; inactive means T/C below 125% in these data.

System: P388 leukemia ip, CD2F1 mice, survival T/C
Test: NCI In Vivo Anticancer Drug Screen. Data for tumor model P388 Leukemia (intraperitoneal) in CD2F1 (CDF1) mice
Details: endpoint: median survival time, higher = longer survival
In short: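 Mice carrying the transplanted tumor received test compound or vehicle. Survival was recorded in each group, and the value is the treated-group measurement divided by that of the vehicle-treated control group.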

[1] = dose: 60.0 mg/kg/injection, schedule: Q01DX005 (ip), vehicle: Klucel (hydroxypropylcellulose) (HPC)
[2] = dose: 120.0 mg/kg/injection, schedule: Q01DX005 (ip), vehicle: Klucel (hydroxypropylcellulose) (HPC)
[3] = dose: 50.0 mg/kg/injection, schedule: Q01DX009 (ip), vehicle: Klucel (hydroxypropylcellulose) (HPC)
[4] = dose: 100.0 mg/kg/injection, schedule: Q01DX009 (ip), vehicle: Klucel (hydroxypropylcellulose) (HPC)
[5] = dose: 200.0 mg/kg/injection, schedule: Q01DX009 (ip), vehicle: Klucel (hydroxypropylcellulose) (HPC)
[6] = dose: 60.0 mg/kg/injection, schedule: Q01DX005 (ip), vehicle: saline with Tween-80
[7] = dose: 120.0 mg/kg/injection, schedule: Q01DX005 (ip), vehicle: saline with Tween-80
[8] = dose: 240.0 mg/kg/injection, schedule: Q01DX005 (ip), vehicle: saline with Tween-80
[9] = dose: 50.0 mg/kg/injection, schedule: Q01DX005 (ip), vehicle: saline with Tween-80
[10] = dose: 100.0 mg/kg/injection, schedule: Q01DX005 (ip), vehicle: saline with Tween-80
[11] = dose: 200.0 mg/kg/injection, schedule: Q01DX005 (ip), vehicle: saline with Tween-80
[12] = dose: 25.0 mg/kg/injection, schedule: Q01DX009 (ip), vehicle: Klucel (hydroxypropylcellulose) (HPC)
[13] = dose: 100.0 mg/kg/injection, schedule: Q01DX009 (ip), vehicle: saline with Tween-80
[14] = dose: 0.5 mg/kg/injection, schedule: Q01DX009 (ip), vehicle: water
[15] = dose: 100.0 mg/kg/injection, schedule: Q01DX001 (ip), vehicle: saline with Tween-80
[16] = dose: 200.0 mg/kg/injection, schedule: Q01DX001 (ip), vehicle: saline with Tween-80
[17] = dose: 400.0 mg/kg/injection, schedule: Q01DX001 (ip), vehicle: saline with Tween-80
[18] = dose: 100.0 mg/kg/injection, schedule: Q04DX002 (ip), vehicle: saline with Tween-80

Measured: T/C

Cc1cccc(Nc2c(C(=O)O)cnc3cc4c(cc23)OCO4)c1
inactive: [1] 94 % of control | [2] 94 % of control

COc1ccc2nc3cc(Cl)ccc3c(NCCCNCCCCNCCCNc3c4ccc(Cl)cc4nc4ccc(OC)nc34)c2n1
inactive: dose: 0.93 mg/kg/injection, schedule: Q01DX005 (ip), vehicle: saline with Tween-80 100 % of control | dose: 1.87 mg/kg/injection, schedule: Q01DX005 (ip), vehicle: saline with Tween-80 106 % of control | dose: 3.75 mg/kg/injection, schedule: Q01DX005 (ip), vehicle: saline with Tween-80 121 % of control

O=C(Sc1ccc(Cl)cc1)N1CCN(C(=O)Sc2ccc(Cl)cc2)CC1
inactive: [3] 92 % of control | [4] 90 % of control | [5] 94 % of control

CCC(=O)O[C@H]1CC[C@H]2[C@@H]3CC[C@H]4CCCC[C@]4(C)[C@H]3CC[C@]12C
inactive: [4] 90 % of control | [5] 95 % of control | dose: 400.0 mg/kg/injection, schedule: Q01DX009 (ip), vehicle: Klucel (hydroxypropylcellulose) (HPC) 105 % of control

CN1C(=O)/C(=C2\SC(=O)N(CN3CCCCC3)C2=O)c2cc(Br)ccc21
inactive: [1] 90 % of control | [2] 90 % of control | dose: 240.0 mg/kg/injection, schedule: Q01DX005 (ip), vehicle: Klucel (hydroxypropylcellulose) (HPC) 95 % of control

COCC1N=C(COCc2ccccc2)OC1c1ccccc1 (configuration not stated)
inactive: [6] 100 % of control | [7] 95 % of control | [8] 100 % of control

CN1C(=O)CC2C(=O)N(Cc3ccccc3)C(=O)C2C1=O (configuration not stated)
inactive: [9] 101 % of control | [10] 101 % of control | [11] 96 % of control

O=c1ccc2ccccc2o1
inactive: dose: 3.12 mg/kg/injection, schedule: Q01DX009 (ip), vehicle: saline with Tween-80 101 % of control and 108 % of control and 94 % of control | dose: 6.25 mg/kg/injection, schedule: Q01DX009 (ip), vehicle: saline with Tween-80 100 % of control and 101 % of control and 110 % of control | dose: 12.5 mg/kg/injection, schedule: Q01DX009 (ip), vehicle: saline with Tween-80 103 % of control and 110 % of control (2×) | [12] 100 % of control and 105 % of control | dose: 25.0 mg/kg/injection, schedule: Q01DX009 (ip), vehicle: saline with Tween-80 100 % of control and 110 % of control and 120 % of control | dose: 25.0 mg/kg/injection, schedule: Q04HX002 (ip), vehicle: water 100 % of control | [3] 105 % of control and 106 % of control and 107 % of control | dose: 50.0 mg/kg/injection, schedule: Q04HX002 (ip), vehicle: water 104 % of control | [4] 102 % of control and 105 % of control and 108 % of control | [13] 103 % of control and 114 % of control | dose: 100.0 mg/kg/injection, schedule: Q04HX002 (ip), vehicle: saline with Tween-80 91 % of control | dose: 100.0 mg/kg/injection, schedule: Q04HX002 (ip), vehicle: water 100 % of control | [5] 119 % of control and 94 % of control | dose: 200.0 mg/kg/injection, schedule: Q04HX002 (ip), vehicle: saline with Tween-80 59 % of control | dose: 200.0 mg/kg/injection, schedule: Q04HX002 (ip), vehicle: water 101 % of control | dose: 400.0 mg/kg/injection, schedule: Q04HX002 (ip), vehicle: saline with Tween-80 46 % of control

CC(=O)NCc1ccccc1N1CCCC1
inactive: dose: 100.0 mg/kg/injection, schedule: Q04DX003 (ip), vehicle: saline 101 % of control | dose: 200.0 mg/kg/injection, schedule: Q04DX003 (ip), vehicle: saline 106 % of control | dose: 400.0 mg/kg/injection, schedule: Q04DX003 (ip), vehicle: saline 101 % of control

Oc1c(C(c2ccccc2)N2CCOCC2)ccc2ccccc12 (configuration not stated)
inactive: dose: 50.0 mg/kg/injection, schedule: Q01DX009 (ip), vehicle: saline with Tween-80 109 % of control | [13] 109 % of control | dose: 200.0 mg/kg/injection, schedule: Q01DX009 (ip), vehicle: saline with Tween-80 104 % of control

CSCS(=O)C[C@H](CO)NC(=O)/C=C/c1c(C)[nH]c(=O)[nH]c1=O (some centres not stated)
inactive: dose: 0.08 mg/kg/injection, schedule: Q01DX009 (ip), vehicle: other 97 % of control | dose: 0.4 mg/kg/injection, schedule: Q01DX009 (ip), vehicle: water 94 % of control | [14] 95 % of control

CCCCn1c(Cl)c(/C=N\Nc2ccccc2[N+](=O)[O-])c2ccccc21
inactive: [15] 93 % of control | [16] 90 % of control | [17] 93 % of control

CC1(C)CC(Nc2ncnc3c2ncn3C2OC(CO)C(O)C2O)CC(C)(C)N1O (configuration not stated)
inactive: dose: 50.0 mg/kg/injection, schedule: Q01DX009 (ip), vehicle: saline 96 % of control | dose: 100.0 mg/kg/injection, schedule: Q01DX009 (ip), vehicle: saline 95 % of control | dose: 200.0 mg/kg/injection, schedule: Q01DX009 (ip), vehicle: saline 94 % of control

Nc1ncnc2c1ccn2C1OC(CO)C(O)C1O (configuration not stated)
inactive: dose: 0.44 mg/kg/injection, schedule: Q01DX001 (ip), vehicle: saline 120 % of control | [14] 113 % of control | dose: 0.88 mg/kg/injection, schedule: Q01DX001 (ip), vehicle: saline 110 % of control | dose: 8.0 mg/kg/injection, schedule: Q01DX010 (sc), vehicle: saline 105 % of control | dose: 16.0 mg/kg/injection, schedule: Q01DX010 (sc), vehicle: saline 110 % of control | dose: 55.0 micrograms/kg/injection, schedule: Q07DX Z (ip), vehicle: saline 90 % of control | dose: 110.0 micrograms/kg/injection, schedule: Q07DX Z (ip), vehicle: saline 105 % of control | dose: 220.0 micrograms/kg/injection, schedule: Q07DX Z (ip), vehicle: saline 105 % of control | dose: 440.0 micrograms/kg/injection, schedule: Q07DX Z (ip), vehicle: saline 105 % of control

O=NNc1ccncc1
inactive: dose: 6.25 mg/kg/injection, schedule: Q01DX005 (ip), vehicle: saline 109 % of control | dose: 12.5 mg/kg/injection, schedule: Q01DX005 (ip), vehicle: saline 122 % of control | dose: 25.0 mg/kg/injection, schedule: Q01DX005 (ip), vehicle: saline 120 % of control

C/C=C/C(=O)Sc1ccccc1
inactive: dose: 12.5 mg/kg/injection, schedule: Q01DX009 (ip), vehicle: Klucel (hydroxypropylcellulose) (HPC) 108 % of control | [12] 105 % of control | [3] 101 % of control and 105 % of control

[N-]=[N+]=NC1(N=[N+]=[N-])C(=O)c2cccc3c2N(CCC3)C1=O (configuration not stated)
inactive: dose: 50.0 mg/kg/injection, schedule: Q01DX005 (ip), vehicle: Klucel (hydroxypropylcellulose) (HPC) 92 % of control | dose: 100.0 mg/kg/injection, schedule: Q01DX005 (ip), vehicle: Klucel (hydroxypropylcellulose) (HPC) 114 % of control | dose: 200.0 mg/kg/injection, schedule: Q01DX005 (ip), vehicle: Klucel (hydroxypropylcellulose) (HPC) 88 % of control

CCOc1cccc(/C=N/NC(=O)C(=O)Nc2ccc(Cl)c([N+](=O)[O-])c2)c1O
inactive: [9] 100 % of control | [10] 89 % of control | [11] 90 % of control

CC(=O)OCC1OC(n2ccc3c(=O)[nH]c(=O)[nH]c32)C(OC(C)=O)C(OC(C)=O)C1OC(C)=O (configuration not stated)
inactive: [15] 104 % of control | [16] 99 % of control | [17] 100 % of control

CC(C)(C)N1CC(COc2ccc(Cl)cc2)OC1=O (configuration not stated)
inactive: [3] 99 % of control | [4] 104 % of control | [5] 102 % of control

NC(=O)CNCC1Cc2ccccc21 (configuration not stated)
inactive: dose: 60.0 mg/kg/injection, schedule: Q01DX005 (ip), vehicle: saline 102 % of control | dose: 120.0 mg/kg/injection, schedule: Q01DX005 (ip), vehicle: saline 98 % of control

COc1nc(NC2OCC(O)C(O)C2O)c(Cl)c(=O)n1C (configuration not stated)
inactive: [6] 93 % of control | [7] 90 % of control | [8] 100 % of control

CCC1=CC(C(O)CC(C)C)C(C)(Cc2ccc(CC)cn2)NC1c1ccccc1 (configuration not stated)
inactive: [18] 96 % of control

COc1cccc(N=Nc2c(-c3ccccc3)nn(C(N)=S)c2-c2ccccc2)c1
inactive: [18] 98 % of control | dose: 200.0 mg/kg/injection, schedule: Q04DX002 (ip), vehicle: saline with Tween-80 95 % of control | dose: 400.0 mg/kg/injection, schedule: Q04DX002 (ip), vehicle: saline with Tween-80 88 % of control
